Measurements: patent publication US20260242398A1, “BENZOPYRIMIDIN-4(3H)-ONES AS PI3K INHIBITORS” (OnKure, Inc., priority 2022, published 2026)
Where two headings read alike, the source gives them in different places.

How the values were obtained:
Type in all cases: cell-based
[1] = test system: T47D cells expressing mutant PI3Ka (H1047R); assay: In vitro cell proliferation (CellTiter-Glo, 72 hours), T47D cells; settings: inhibition of proliferation, read-out: Avg T-47D EC50
Method: (§1) In Vitro Cell Proliferation: Determination of EC50 Values for Inhibition of Proliferation in T47D Cells Expressing Mutant PI3Ka (H1047R) Mutation and SKBR3 Cells Express WT PI3Ka.
(§2) T47D or SKBR3 cells were trypsinized, resuspended in culture media and seeded onto assay ready plates. T47D culture media consisted of RPMI, 10% FBS and Insulin (0.2 units/mL). SKBR3 culture media consisted of McCoys 5a and 10% FBS. Cells were seeded at a density of 1,500 cells/well and dispensed in 50 uL onto 384 well assay ready plates (Corning, 89089-790). Assay ready plates had previously been stamped with 10-point dilutions of compounds of interest, as well as controls. The Echo655 is used to stamp plates at 40 nL of compound or DMSO. Cells were grown for 72 hours at 37° Celsius and 5% CO2. After 72 hours, cells were equilibrated at room temperature for 15 minutes. 30 uL of CellTiter-Glo reagent is added to the plate, which is then shaken for 30 minutes at temperature at 300-500 rpm. Cells are then read on an Envision plate reader. The percentage of inhibition of proliferation was calculated using the following formula: % Inhibition=100×(LumD−LumSample)/(LumD−LumInh), where D is obtained from cells treated with 0.1% DMSO only; Inh is obtained from cells treated with 10 uM Alpelisib. The effective concentration achieving 50% inhibition of proliferation (EC50) is calculated by fitting the Curve using XWfit (v5.3.1.3), equation 201: Y=Bottom+(Top−Bottom)/(1+10^((Log EC50−X)*HillSlope)).

[2] = test system: SKBR3 cells express WT PI3Ka; assay: In vitro cell proliferation (CellTiter-Glo, 72 hours), SKBR3 cells
Method: as §1, §2

[3] = test system: phosphorylation of AKT (pAKT) in T47D cells expressing mutant PI3Ka (H1047R); assay: In vitro cell pAKT (Ser473) HTRF, T47D cells
Method: (§3) In Vitro Cell pAKT: Determination of IC50 Values for Inhibition of Phosphorylation of AKT (pAKT) in T47D Cells Expressing Mutant PI3Ka (H1047R) Mutation and SKBR3 Cells Express WT PI3Ka.
(§4) T47D or SKBR3 cells were trypsinized, resuspended in culture media and seeded onto assay ready plates. T47D culture media consisted of RPMI, 10% FBS and Insulin (0.2 units/mL). SKBR3 culture media consisted of McCoy's 5a and 10% FBS. Cells were seeded at a density of 5000 cells/well and dispensed in 12.5 uL onto 384 well assay ready plates (Perkin Elmer, 6008238)). Assay ready plates had previously been stamped with 10-point dilutions of compounds of interest, as well as controls. The Echo655 is used to stamp plates at 12.5 nL of compound or DMSO. Cells were grown for 6 hour at 37° Celsius and 5% CO2. After 6 hour, 4 uL of Lysis buffer reagent was added to the plate, which was then centrifuged for 1 minute at 1000 rpm. Then the plate was incubated at room temperature for 30 minutes. After 30 minutes, 4 uL of antibody mix containing Eu Cryptate, d2 Cryptate, and detection buffer, was added to the plate. The plate was centrifuged for 1 minute at 1000 rpm and then incubated overnight at room temperature. The plate was read on an Envision plate reader using the HTRF protocol. The percentage of inhibition of AKT phosphorylation was calculated using the following formula: % Inhibition=100×(pAKTHC−pAKTSample)/(pAKTHC−pAKTLC)), where pAKTHC is obtained from cells treated with 0.1% DMSO only; pAKTLC is obtained from cells treated with 10 uM Alpelisib. The IC50 (concentration achieving 50% inhibition of pAKT) is calculated by fitting the Curve using XWfit (v5.3.1.3), equation 201: Y=Bottom+(Top−Bottom)/(1+10^((Log IC50−X)*HillSlope)).

[4] = test system: phosphorylation of AKT (pAKT) in SKBR3 cells express WT PI3Ka; assay: In vitro cell pAKT (Ser473) HTRF, SKBR3 cells
Method: as §3, §4

[5] = read-out: Avg T-47D IC50, inhibition of pAKT, 6 hour
[6] = Homo sapiens, SK-BR-3, 72 h, inhibition of proliferation
[7] = inhibition of pAKT, 6 hour, read-out: Avg T-47D IC50
[8] = Homo sapiens, SK-BR-3, 6 h, inhibition of pAKT

EC50 [1] | EC50 ([2]; inhibition of proliferation) | IC50 ([4]; inhibition of pAKT, 6 hour) | EC50 [2, 6] | IC50 [3, 7] | IC50 [4, 8] | EC50 ([1]; Homo sapiens, T47D, 72 h) | SMILES | EC50 ([2]; Homo sapiens, SK-BR-3, inhibition of proliferation) | IC50 [3, 5] | IC50 ([4]; Homo sapiens, SK-BR-3, inhibition of pAKT, 6 hour)
0.5 to 2 µM | – | – | > 15 µM | 1 to 5 µM | > 15 µM | – | Cc1cc(C(C)Nc2ccccc2C(=O)O)c2nc(N3CCCC(C)(C)C3)n(C)c(=O)c2c1 (single isomer, unassigned) [Example 3, 2-((1-(2-(3,3-dimethylpiperidin-1-yl)-3,6-dimethyl-4-oxo-3,4-dihydroquinazolin-8-yl)ethyl)amino)benzoic acid] | – | – | –
2 to 15 µM | > 15 µM | > 15 µM | – | > 15 µM | – | – | Cc1cc(C(C)Nc2ccccc2C(=O)O)c2nc(N3CCCC(C)(C)C3)n(C)c(=O)c2c1 (single isomer, unassigned) [Example 4, 2-((1-(2-(3,3-dimethylpiperidin-1-yl)-3,6-dimethyl-4-oxo-3,4-dihydroquinazolin-8-yl)ethyl)amino)benzoic acid] | – | – | –
2 to 15 µM | > 15 µM | > 15 µM | – | 1 to 5 µM | – | – | Cc1cc(C(C)Nc2ccccc2C(=O)O)c2nc(N3CC4(CCCCC4)C3)n(C)c(=O)c2c1 (single isomer, unassigned) [Example 5, 2-((1-(3,6-dimethyl-4-oxo-2-(2-azaspiro[3.5]nonan-2-yl)-3,4-dihydroquinazolin-8-yl)ethyl)amino)benzoic acid] | – | – | –
> 15 µM | – | – | > 15 µM | > 15 µM | > 15 µM | – | Cc1cc(C(C)Nc2ccccc2C(=O)O)c2nc(N3CC4(CCCCC4)C3)n(C)c(=O)c2c1 (single isomer, unassigned) [Example 6, 2-((1-(3,6-dimethyl-4-oxo-2-(2-azaspiro[3.5]nonan-2-yl)-3,4-dihydroquinazolin-8-yl)ethyl)amino)benzoic acid] | – | – | –
0.5 to 2 µM | – | – | > 15 µM | 0.001 to 1 µM | > 15 µM | – | COc1ccc2c(c1)CN(c1nc3c(C(C)Nc4ccccc4C(=O)O)cc(C)cc3c(=O)n1C)C2 (single isomer, unassigned) [Example 7, 2-((1-(2-(5-methoxyisoindolin-2-yl)-3,6-dimethyl-4-oxo-3,4-dihydroquinazolin-8-yl)ethyl)amino)benzoic acid] | – | – | –
> 15 µM | > 15 µM | > 15 µM | – | > 15 µM | – | – | COc1ccc2c(c1)CN(c1nc3c(C(C)Nc4ccccc4C(=O)O)cc(C)cc3c(=O)n1C)C2 (single isomer, unassigned) [Example 8, 2-((1-(2-(5-methoxyisoindolin-2-yl)-3,6-dimethyl-4-oxo-3,4-dihydroquinazolin-8-yl)ethyl)amino)benzoic acid] | – | – | –
0.5 to 2 µM | > 15 µM | – | – | 1 to 5 µM | > 15 µM | – | Cc1cc(C(C)Nc2ccccc2C(=O)O)c2nc(N3Cc4ccc(Cl)cc4C3)n(C)c(=O)c2c1 (single isomer, unassigned) [Example 9, 2-((1-(2-(5-chloroisoindolin-2-yl)-3,6-dimethyl-4-oxo-3,4-dihydroquinazolin-8-yl)ethyl)amino)benzoic acid] | – | – | –
2 to 15 µM | 2 to 15 µM | > 15 µM | – | > 15 µM | – | – | Cc1cc(C(C)Nc2ccccc2C(=O)O)c2nc(N3Cc4ccc(Cl)cc4C3)n(C)c(=O)c2c1 (single isomer, unassigned) [Example 10, 2-((1-(2-(5-chloroisoindolin-2-yl)-3,6-dimethyl-4-oxo-3,4-dihydroquinazolin-8-yl)ethyl)amino)benzoic acid] | – | – | –
2 to 15 µM | > 15 µM | – | – | > 15 µM | > 15 µM | – | Cc1cc(C(C)Nc2ccc(Cl)cc2C(=O)O)c2nc(N3Cc4ccc(F)cc4C3)n(C)c(=O)c2c1 (single isomer, unassigned) [Example 13, 5-chloro-2-((1-(2-(5-fluoroisoindolin-2-yl)-3,6-dimethyl-4-oxo-3,4-dihydroquinazolin-8-yl)ethyl)amino)benzoic acid] | – | – | –
0.001 to 0.5 µM | 2 to 15 µM | > 15 µM | – | 1 to 5 µM | – | – | Cc1cc(C(C)Nc2ccc(Cl)cc2C(=O)O)c2nc(N3Cc4ccc(F)cc4C3)n(C)c(=O)c2c1 (single isomer, unassigned) [Example 14, 5-chloro-2-((1-(2-(5-fluoroisoindolin-2-yl)-3,6-dimethyl-4-oxo-3,4-dihydroquinazolin-8-yl)ethyl)amino)benzoic acid] | – | – | –
– | – | – | 2 to 15 µM | – | – | 2 to 15 µM | Cc1cc(C(C)Nc2ccc(C#N)cc2C(=O)O)c2nc(N3CCC(C)(C)CC3)n(C)c(=O)c2c1 (single isomer, unassigned) [Example 15, 5-cyano-2-((1-(2-(4,4-dimethylpiperidin-1-yl)-3,6-dimethyl-4-oxo-3,4-dihydroquinazolin-8-yl)ethyl)amino)benzoic acid] | – | – | –
2 to 15 µM | 2 to 15 µM | – | – | – | – | – | Cc1cc(C(C)Nc2ccc(C#N)cc2C(=O)O)c2nc(N3CCC(C)(C)CC3)n(C)c(=O)c2c1 (single isomer, unassigned) [Example 16, 5-cyano-2-((1-(2-(4,4-dimethylpiperidin-1-yl)-3,6-dimethyl-4-oxo-3,4-dihydroquinazolin-8-yl)ethyl)amino)benzoic acid] | – | – | –
– | – | – | > 15 µM | – | – | 0.5 to 2 µM | Cc1cc(C(C)Nc2ccccc2C(=O)O)c2nc(N3Cc4ccc(C(N)=O)cc4C3)n(C)c(=O)c2c1 (centres unmarked) [Example 19, 2-((1-(2-(5-carbamoylisoindolin-2-yl)-3,6-dimethyl-4-oxo-3,4-dihydroquinazolin-8-yl)ethyl)amino)benzoic acid] | – | – | –

SMILES | EC50 [1] | EC50 ([2]; inhibition of proliferation) | IC50 ([4]; inhibition of pAKT, 6 hour) | EC50 [2, 6] | IC50 [3, 7] | IC50 [4, 8] | EC50 ([1]; Homo sapiens, T47D, 72 h) | EC50 ([2]; Homo sapiens, SK-BR-3, inhibition of proliferation) | IC50 [3, 5] | IC50 ([4]; Homo sapiens, SK-BR-3, inhibition of pAKT, 6 hour)
Cc1cc(C(C)Nc2ccccc2C(=O)O)c2nc(N3CC[Si](C)(C)CC3)n(C)c(=O)c2c1 (single isomer, unassigned) [Example 1, 2-((1-(2-(4,4-dimethyl-1,4-azasilinan-1-yl)-3,6-dimethyl-4-oxo-3,4-dihydroquinazolin-8-yl)ethyl)amino)benzoic acid] | 0.5 to 2 µM | – | – | – | – | – | – | 2 to 15 µM | 0.001 to 1 µM | > 15 µM
Cc1cc(C(C)Nc2ccccc2C(=O)O)c2nc(N3CC[Si](C)(C)CC3)n(C)c(=O)c2c1 (single isomer, unassigned) [Example 2, 2-((1-(2-(4,4-dimethyl-1,4-azasilinan-1-yl)-3,6-dimethyl-4-oxo-3,4-dihydroquinazolin-8-yl)ethyl)amino)benzoic acid] | 2 to 15 µM | 2 to 15 µM | > 15 µM | – | – | – | – | – | > 15 µM | –
Cc1cc(C(C)Nc2ccccc2C(=O)O)c2nc(OCC(C)C)n(C)c(=O)c2c1 (single isomer, unassigned) [Example 11, 2-((1-(2-isobutoxy-3,6-dimethyl-4-oxo-3,4-dihydroquinazolin-8-yl)ethyl)amino)benzoic acid] | 0.5 to 2 µM | – | – | > 15 µM | 1 to 5 µM | > 15 µM | – | – | – | –
Cc1cc(C(C)Nc2ccccc2C(=O)O)c2nc(OCC(C)C)n(C)c(=O)c2c1 (single isomer, unassigned) [Example 12, 2-((1-(2-isobutoxy-3,6-dimethyl-4-oxo-3,4-dihydroquinazolin-8-yl)ethyl)amino)benzoic acid] | 2 to 15 µM | > 15 µM | > 15 µM | – | > 15 µM | – | – | – | – | –
